Source: patent US7741351B2, “Compounds which potentiate glutamate receptor and uses thereof in medicine” (Glaxo Group Limited, priority 2004, dated 2010)

Target: T1, human GluR2 flip (unedited) AMPA receptor subunit (Homo sapiens, UniProt P42262)
T1 construct: expressed in transfected cells
Experiment: Calcium influx fluorescence assay (FLUO4, potentiation of glutamate response)
Type: cell-based
Details: Assay a); HEK 293 cells expressing human GluR2 flip (unedited); 100 μM glutamate final; peak fluorescence
Description: The ability of the compounds of the invention to potentiate glutamate receptor-mediated response were determined a) by using fluorescent calcium-indicator dyes such as FLUO4 and b) by measuring glutamate-evoked current recorded from human GluR2 flip unedited HEK293 cells.
a) Calcium Influx Fluorescence Assay
384 well plates were prepared containing confluent monolayer of HEK 293 cells either stably expressing or transiently transfected with human GluR2 flip (unedited) AMPA receptor subunit. These cells form functional homotetrameric AMPA receptors. […]
The cell plate was then transferred into a fluorescence imaging plate based reader [such as the FLIPR384 (Molecular Devices)]. A baseline fluorescence reading was taken over a 10 to 240 second period, and then 10 μL from each plate containing a compound of the invention made up in standard buffer solution (in a concentration range from 100 μM to 10 pM) was added (to give a final concentration in the range 30 μM to 3 pM). The fluorescence was read over 5 minute period. […] The fluoresecence was then read over a 4 minute period. The activities of the compounds of the invention and reference compounds were determined by measuring peak fluorescence after the last addition. The activity can also be expressed relative to the fluorescence increase induced by cyclothiazide at their maximum response (i.e. greater than 30 μM).

T1 sequence (P42262 25-883 isoform P42262-2 limits assumed): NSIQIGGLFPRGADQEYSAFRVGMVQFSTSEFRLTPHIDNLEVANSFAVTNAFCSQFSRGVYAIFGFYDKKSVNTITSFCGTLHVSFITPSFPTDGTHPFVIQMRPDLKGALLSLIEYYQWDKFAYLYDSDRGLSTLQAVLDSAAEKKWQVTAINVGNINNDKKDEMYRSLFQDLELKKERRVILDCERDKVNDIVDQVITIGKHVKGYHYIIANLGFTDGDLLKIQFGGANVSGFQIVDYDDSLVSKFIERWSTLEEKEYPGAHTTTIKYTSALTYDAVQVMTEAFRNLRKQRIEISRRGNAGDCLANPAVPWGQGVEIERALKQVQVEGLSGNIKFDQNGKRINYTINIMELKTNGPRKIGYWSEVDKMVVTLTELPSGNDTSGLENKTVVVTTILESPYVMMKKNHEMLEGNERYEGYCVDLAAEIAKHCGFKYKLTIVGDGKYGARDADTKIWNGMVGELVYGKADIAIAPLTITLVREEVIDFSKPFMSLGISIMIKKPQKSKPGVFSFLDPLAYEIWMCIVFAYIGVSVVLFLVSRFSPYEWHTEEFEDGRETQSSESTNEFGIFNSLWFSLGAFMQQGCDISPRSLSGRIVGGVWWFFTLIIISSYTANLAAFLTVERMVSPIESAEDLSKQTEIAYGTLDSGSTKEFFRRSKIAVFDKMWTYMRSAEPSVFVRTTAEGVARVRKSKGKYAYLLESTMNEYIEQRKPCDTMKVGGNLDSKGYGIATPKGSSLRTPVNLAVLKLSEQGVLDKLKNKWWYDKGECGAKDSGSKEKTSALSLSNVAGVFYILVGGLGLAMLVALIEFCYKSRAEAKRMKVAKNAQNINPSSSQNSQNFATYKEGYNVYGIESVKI

EC50: 3.16 µM
SMILES: CCS(=O)(=O)Nc1cccc(-c2ccc3c(c2)CC(NS(=O)(=O)C(C)C)C3)c1 (stereo not shown) [Example 6, N-(5-{3-[(ethylsulfonyl)amino]phenyl}-2,3-dihydro-1H-inden-2-yl)-2-propanesulfonamide]
